Measured values reported in patent US8895585B2, “Nicotinamide derivative or salt thereof” (FUJIFILM Corporation, priority 2010, dated 2014).

Experiments:
THP-1 cells = assay: TNFα generation assay; type: cell-based, human; details: Homo sapiens, THP-1, THP-1 cells; Table 22; read-out: IC50 in TNFα generation assay
Summary of the method: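 Secreted TNFα in supernatant quantified by ELISA or AlphaLISA after 7 h culture on human IgG-coated wells (10 μg/ml coating). Cells were IFN-γ-differentiated THP-1 (10 ng/ml, 2 days), exposed to compound for 30 min at room temperature before plating.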

[1] = target: T1, glutathione S-transferase (GST)-fused full-length human Syk protein (Homo sapiens, UniProt P43405); assay: Syk enzyme assay; type: biochemical; details: Syk enzyme assay, Test Example 1; read-out: IC50 of Syk-inhibitory activity
T1 construct: (GST)-fused full-length human Syk protein; GST (glutathione S-transferase); purchased Carna Biosciences
Summary of the method: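 Baculovirus-expressed enzyme (1.2 ng) was preincubated with compound in HEPES pH 7.0/MgCl2/DTT buffer, 2 min shaking then 13 min at room temperature. Biotin-EDPDYEWPSA-NH2 (0.4 μM final) and ATP (27 μM final) were added for 40 min at room temperature. EDTA stop, streptavidin-XL/PT66-K TR-FRET at 615/665 nm gave IC50.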

SMILES | IC50 (THP-1 cells) [nM] | IC50 [1] [nM]
CCn1ncc2cc(Nc3nc(N[C@H](c4ccc(F)cc4)[C@H](C)N)c(F)cc3C(N)=O)ccc21 [Example 006-555, 6-(((1R,2S)-2-amino-1-(4-fluorophenyl)propyl)amino)-2-((1-ethyl-1H-indazol-5-yl)amino)-5-fluoronicotinamide] | 65 to 130 | < 10
COc1cc(Nc2nc(N[C@H](c3ccc(F)cc3)[C@H](C)N)c(F)cc2C(N)=O)ccn1 [Example 006-556, 6-(((1R,2S)-2-amino-1-(4-fluorophenyl)propyl)amino)-5-fluoro-2-((2-methoxypyridin-4-yl)amino)nicotinamide] | 65 to 130 | < 10
COc1cc(Nc2nc(N[C@H](c3ccc(F)cc3)[C@H](C)N)c(F)cc2C(N)=O)cc(OC)n1 [Example 006-557, 6-(((1R,2S)-2-amino-1-(4-fluorophenyl)propyl)amino)-2-((2,6-dimethoxypyridin-4-yl)amino)-5-fluoronicotinamide] | 130 to 200 | < 10
Cc1cc(Nc2nc(N[C@H](c3ccc(F)cc3)[C@H](C)N)c(F)cc2C(N)=O)cnc1C [Example 006-558, 6-(((1R,2S)-2-amino-1-(4-fluorophenyl)propyl)amino)-2-((5,6-dimethylpyridin-3-yl)amino)-5-fluoronicotinamide] | 65 to 130 | < 10
COCCOc1cc(Nc2nc(N[C@H](c3ccc(F)cc3)[C@H](C)N)c(F)cc2C(N)=O)ccn1 [Example 006-559, 6-(((1R,2S)-2-amino-1-(4-fluorophenyl)propyl)amino)-5-fluoro-2-((2-(2-methoxyethoxy)pyridin-4-yl)amino)nicotinamide] | 65 to 130 | < 10
CC[C@@H](Nc1nc(Nc2ccc3c(c2)c(N2CCOCC2)nn3C)c(C(N)=O)cc1F)[C@H](C)N [Example 006-563, 6-(((2S,3R)-2-aminopentan-3-yl)amino)-5-fluoro-2-((1-methyl-3-morpholino-1H-indazol-5-yl)amino)nicotinamide] | 130 to 200 | < 10
COc1ncc(Nc2nc(N[C@@H]3CCCC[C@@H]3N)c(F)cc2C(N)=O)cc1N1CCOCC1 [Example 006-564, 6-(((1R,2S)-2-aminocyclohexyl)amino)-5-fluoro-2-((6-methoxy-5-mopholinopyridin-3-yl)amino)nicotinamide] | 65 to 130 | 100 to 1000
CCOc1ncc(Nc2nc(N[C@@H]3CCCC[C@@H]3N)c(F)cc2C(N)=O)cc1N1CCOCC1 [Example 006-565, 6-(((1R,2S)-2-aminocyclohexyl)amino)-2-((6-ethoxy-5-morpholinopyridin-3-yl)amino)-5-fluoronicotinamide] | 65 to 130 | 100 to 1000
CCOc1ncc(Nc2nc(N[C@@H]3CCCC[C@@H]3N)c(F)cc2C(N)=O)cc1F [Example 006-572, 6-(((1R,2S)-2-aminocyclohexyl)amino)-2-((6-ethoxy-5-fluoropyridin-3-yl)amino)-5-fluoronicotinamide] | 130 to 200 | 10 to 50
COCCOc1ncc(Nc2nc(N[C@@H]3CCCC[C@@H]3N)c(F)cc2C(N)=O)cc1-n1cccn1 [Example 006-575, 6-(((1R,2S)-2-aminocyclohexyl)amino)-2-((6-(2-methoxyethoxy)-5-(1H-pyrazol-1-yl)pyridin-3-yl)amino)-5-fluoronicotinamide] | 130 to 200 | 10 to 50
CCn1ncc2c(Nc3nc(N[C@H](C4CC4)[C@H](C)N)c(F)cc3C(N)=O)cccc21 [Example 006-576, 6-(((1R,2S)-2-amino-1-cyclopropylpropyl)amino)-2-((1-ethyl-1H-indazol-4-yl)amino)-5-fluoronicotinamide] | < 65 | < 10
C[C@H](N)[C@H](Nc1nc(Nc2ccc3c(c2)c(F)nn3C)c(C(N)=O)cc1F)C1CC1 [Example 006-577, 6-(((1R,2S)-2-amino-1-cyclopropylpropyl)amino)-2-((3-fluoro-1-methyl-1H-indazol-5-yl)amino)-5-fluoronicotinamide] | < 65 | < 10
CCc1nn(C)c2ccc(Nc3nc(N[C@H](C4CC4)[C@H](C)N)c(F)cc3C(N)=O)cc12 [Example 006-578, 6-(((1R,2S)-2-amino-1-cyclopropylpropyl)amino)-2-((3-ethyl-1-methyl-1H-indazol-5-yl)amino)-5-fluoronicotinamide] | 65 to 130 | < 10
CCc1nn(CC)c2ccc(Nc3nc(N[C@H](C4CC4)[C@H](C)N)c(F)cc3C(N)=O)cc12 [Example 006-579, 6-(((1R,2S)-2-amino-1-cyclopropylpropyl)amino)-2-((1,3-diethyl-1H-indazol-5-yl)amino)-5-fluoronicotinamide] | 65 to 130 | < 10
CC(C)c1nn(C)c2ccc(Nc3nc(N[C@H](C4CC4)[C@H](C)N)c(F)cc3C(N)=O)cc12 [Example 006-580, 6-(((1R,2S)-2-amino-1-cyclopropylpropyl)amino)-5-fluoro-2-((3-isopropyl-1-methyl-1H-indazol-5-yl)amino)nicotinamide] | 130 to 200 | < 10
CCn1ncc2ccc(Nc3nc(N[C@H](C4CC4)[C@H](C)N)c(F)cc3C(N)=O)cc21 [Example 006-581, 6-(((1R,2S)-2-amino-1-cyclopropylpropyl)amino)-2-((1-ethyl-1H-indazol-6-yl)amino)-5-fluoronicotinamide] | < 65 | < 10
CCn1nc(C)c2cc(Nc3nc(N[C@H](C4CC4)[C@H](C)N)c(F)cc3C(N)=O)ccc21 [Example 006-583, 6-(((1R,2S)-2-amino-1-cyclopropylpropyl)amino)-2-((1-ethyl-3-methyl-1H-indazol-5-yl)amino)-5-fluoronicotinamide] | < 65 | < 10
Cc1nn(CC(F)F)c2ccc(Nc3nc(N[C@H](C4CC4)[C@H](C)N)c(F)cc3C(N)=O)cc12 [Example 006-584, 6-(((1R,2S)-2-amino-1-cyclopropylpropyl)amino)-2-((1-(2,2-difluoroethyl)-3-methyl-1H-indazol-5-yl)amino)-5-fluoronicotinamide] | 65 to 130 | < 10
COc1nn(C)c2ccc(Nc3nc(N[C@@H]4CCCC[C@@H]4N)c(F)cc3C(N)=O)cc12 [Example 006-585, 6-(((1R,2S)-2-aminocyclohexyl)amino)-5-fluoro-2-((3-methoxy-1-methyl-1H-indazol-5-yl)amino)nicotinamide] | < 65 | < 10
COc1nn(C)c2ccc(Nc3nc(N[C@H](CC4CC4)[C@H](C)N)c(F)cc3C(N)=O)cc12 [Example 006-586, 6-(((2R,3S)-3-amino-1-cyclopropylbutan-2-yl)amino)-5-fluoro-2-((3-methoxy-1-methyl-1H-indazol-5-yl)amino)nicotinamide] | 65 to 130 | < 10
COc1nn(C)c2ccc(Nc3nc(N[C@H](CC(C)C)[C@H](C)N)c(F)cc3C(N)=O)cc12 [Example 006-587, 6-(((2S,3R)-2-amino-5-methylhexan-3-yl)amino)-5-fluoro-2-((3-methoxy-1-methyl-1H-indazol-5-yl)amino)nicotinamide] | 65 to 130 | < 10
CC[C@@H](Nc1nc(Nc2ccc3c(c2)c(OC)nn3C)c(C(N)=O)cc1F)[C@H](C)N [Example 006-588, 6-(((2S,3R)-2-aminopentan-3-yl)amino)-5-fluoro-2-((3-methoxy-1-methyl-1H-indazol-5-yl)amino)nicotinamide] | < 65 | < 10
